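Growth conditions: 96-well plates. Treatment: test compound, 48 hours, 5 concentrations. Analysis: linear interpolation between bracketing concentrations; unreached endpoints set to highest concentration. The concentration for full growth arrest is given as TGI.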 Where a SMILES comes first, the peptide text is derived from it. [ ]: non-standard residue; d: D form. The star is where a group is joined. ξ: configuration not given here. Cbz = O=C(OCc1ccccc1)*; ξK = NCCCCC(N)C(=O)O
How the values were obtained:
Assay in all cases: NCI anticancer screen, dose series, 48 h
HOP-92 NSCLC = system: HOP-92 NSCLC
HCC-2998 colon = system: HCC-2998 colon
KM12 colon = system: KM12 colon
K-562 leukemia = system: K-562 leukemia
U251 CNS = system: U251 CNS
MDA-MB-435 = system: MDA-MB-435
SF-539 CNS = system: SF-539 CNS
M14 melanoma = system: M14 melanoma
NCI/ADR-RES ovarian = system: NCI/ADR-RES ovarian
EKVX NSCLC = system: EKVX NSCLC
RPMI-8226 leukemia = system: RPMI-8226 leukemia
NCI-H522 lung = system: NCI-H522 lung
786-0 renal = system: 786-0 renal
SNB-19 CNS = system: SNB-19 CNS
SR leukemia = system: SR leukemia
MALME-3M melanoma = system: MALME-3M melanoma
HOP-62 NSCLC = system: HOP-62 NSCLC
CAKI-1 renal = system: CAKI-1 renal
SF-295 CNS = system: SF-295 CNS
RXF 393 renal = system: RXF 393 renal
HT29 colon = system: HT29 colon
HS 578T breast = system: HS 578T breast
HCT-116 colon = system: HCT-116 colon
TK-10 renal = system: TK-10 renal
SK-MEL-2 melanoma = system: SK-MEL-2 melanoma
OVCAR-3 ovarian = system: OVCAR-3 ovarian
NCI-H226 lung = system: NCI-H226 lung
OVCAR-5 ovarian = system: OVCAR-5 ovarian
IGROV1 ovarian = system: IGROV1 ovarian
MOLT-4 leukemia = system: MOLT-4 leukemia
LOX IMVI melanoma = system: LOX IMVI melanoma
NCI-H23 lung = system: NCI-H23 lung
ACHN renal = system: ACHN renal
SF-268 CNS = system: SF-268 CNS
T-47D breast = system: T-47D breast
UACC-62 melanoma = system: UACC-62 melanoma
A549 NSCLC = system: A549 NSCLC
MDA-N = system: MDA-N
PC-3 prostate = system: PC-3 prostate
SN12C renal = system: SN12C renal
SNB-75 CNS = system: SNB-75 CNS
MCF7 breast = system: MCF7 breast
MDA-MB-231 breast = system: MDA-MB-231 breast
OVCAR-4 ovarian = system: OVCAR-4 ovarian
SK-MEL-28 melanoma = system: SK-MEL-28 melanoma
DU-145 prostate = system: DU-145 prostate
HCT-15 colon = system: HCT-15 colon
COLO 205 colon = system: COLO 205 colon
SK-OV-3 ovarian = system: SK-OV-3 ovarian
CCRF-CEM leukemia = system: CCRF-CEM leukemia
OVCAR-8 ovarian = system: OVCAR-8 ovarian
SW-620 colon = system: SW-620 colon
SK-MEL-5 melanoma = system: SK-MEL-5 melanoma
UACC-257 melanoma = system: UACC-257 melanoma
NCI-H460 lung = system: NCI-H460 lung
UO-31 renal = system: UO-31 renal
A498 renal = system: A498 renal

CC12OC(=O)[C@@]3(O)CCC4C(C[C@H]5O[C@]56CC=CC(=O)[C@]46C)C45OC[C@H]6C(=O)O[C@@H]1C[C@@]6(C)[C@H](C4=O)C23O5 (stereo partly specified)
TGI (HOP-92 NSCLC): 5.67 µM | TGI (HCC-2998 colon): 10.5 µM | TGI (KM12 colon): 3.97 µM | TGI (K-562 leukemia): > 100 µM | TGI (U251 CNS): 5.77 µM | TGI (MDA-MB-435): 5.2 µM | TGI (SF-539 CNS): 923 nM | TGI (M14 melanoma): 4.32 µM | TGI (NCI/ADR-RES ovarian): > 100 µM | TGI (EKVX NSCLC): 16.6 µM | TGI (RPMI-8226 leukemia): 2470 nM | TGI (NCI-H522 lung): 1770 nM | TGI (786-0 renal): 2250 nM | TGI (SNB-19 CNS): 11.8 µM | TGI (SR leukemia): 2460 nM | TGI (MALME-3M melanoma): 5.72 µM | TGI (HOP-62 NSCLC): 10.4 µM | TGI (CAKI-1 renal): 7.53 µM | TGI (SF-295 CNS): 16.2 µM | TGI (RXF 393 renal): 2430 nM | TGI (HT29 colon): 8.99 µM | TGI (HS 578T breast): 68.9 µM | TGI (HCT-116 colon): 4.97 µM | TGI (TK-10 renal): 3.97 µM | TGI (SK-MEL-2 melanoma): 9.38 µM | TGI (OVCAR-3 ovarian): 2770 nM | TGI (NCI-H226 lung): 6.98 µM | TGI (OVCAR-5 ovarian): 10.7 µM | TGI (IGROV1 ovarian): 2580 nM | TGI (MOLT-4 leukemia): 21.4 µM | TGI (LOX IMVI melanoma): 6.92 µM | TGI (NCI-H23 lung): 2180 nM | TGI (ACHN renal): 8.45 µM | TGI (SF-268 CNS): 1910 nM | TGI (T-47D breast): 5.27 µM | TGI (UACC-62 melanoma): 3.46 µM | TGI (A549 NSCLC): 13.7 µM | TGI (MDA-N): 26.1 µM | TGI (PC-3 prostate): 12.9 µM | TGI (SN12C renal): 5.39 µM | TGI (SNB-75 CNS): 20.7 µM | TGI (MCF7 breast): 3.3 µM | TGI (MDA-MB-231 breast): 2580 nM | TGI (OVCAR-4 ovarian): 8.27 µM | TGI (SK-MEL-28 melanoma): 2060 nM | TGI (DU-145 prostate): 7.77 µM | TGI (HCT-15 colon): 4.43 µM | TGI (COLO 205 colon): 1930 nM | TGI (SK-OV-3 ovarian): 18.6 µM | TGI (CCRF-CEM leukemia): 1450 nM | TGI (OVCAR-8 ovarian): 12.6 µM | TGI (SW-620 colon): 4.87 µM | TGI (SK-MEL-5 melanoma): 2860 nM | TGI (UACC-257 melanoma): 4.98 µM | TGI (NCI-H460 lung): 8.69 µM

NCCCCC(NC(=O)OCc1ccccc1)C(=O)NCC(N)=O (stereo unspecified) (Cbz-[ξK]-Gly-NH2)
TGI (HOP-92 NSCLC): > 100 µM | TGI (HCC-2998 colon): > 100 µM | TGI (KM12 colon): > 100 µM | TGI (K-562 leukemia): > 100 µM | TGI (U251 CNS): > 100 µM | TGI (MDA-MB-435): > 100 µM | TGI (SF-539 CNS): > 100000 nM | TGI (M14 melanoma): > 100 µM | TGI (NCI/ADR-RES ovarian): > 100 µM | TGI (UO-31 renal): > 100 µM | TGI (EKVX NSCLC): > 100 µM | TGI (RPMI-8226 leukemia): > 100000 nM | TGI (NCI-H522 lung): > 100000 nM | TGI (786-0 renal): > 100000 nM | TGI (SNB-19 CNS): > 100 µM | TGI (SR leukemia): > 100000 nM | TGI (MALME-3M melanoma): > 100 µM | TGI (HOP-62 NSCLC): > 100 µM | TGI (CAKI-1 renal): > 100 µM | TGI (SF-295 CNS): > 100 µM | TGI (RXF 393 renal): > 100000 nM | TGI (HT29 colon): > 100 µM | TGI (HS 578T breast): > 100 µM | TGI (HCT-116 colon): > 100 µM | TGI (SK-MEL-2 melanoma): > 100 µM | TGI (OVCAR-3 ovarian): > 100000 nM | TGI (NCI-H226 lung): > 100 µM | TGI (OVCAR-5 ovarian): > 100 µM | TGI (IGROV1 ovarian): > 100000 nM | TGI (MOLT-4 leukemia): > 100 µM | TGI (LOX IMVI melanoma): > 100 µM | TGI (NCI-H23 lung): > 100000 nM | TGI (ACHN renal): > 100 µM | TGI (SF-268 CNS): > 100000 nM | TGI (T-47D breast): > 100 µM | TGI (UACC-62 melanoma): > 100 µM | TGI (A549 NSCLC): > 100 µM | TGI (MDA-N): > 100 µM | TGI (PC-3 prostate): > 100 µM | TGI (SN12C renal): > 100 µM | TGI (SNB-75 CNS): > 100 µM | TGI (MCF7 breast): > 100 µM | TGI (A498 renal): > 100 µM | TGI (MDA-MB-231 breast): > 100000 nM | TGI (OVCAR-4 ovarian): > 100 µM | TGI (SK-MEL-28 melanoma): > 100000 nM | TGI (DU-145 prostate): > 100 µM | TGI (HCT-15 colon): > 100 µM | TGI (COLO 205 colon): > 100000 nM | TGI (SK-OV-3 ovarian): > 100 µM | TGI (CCRF-CEM leukemia): > 100000 nM | TGI (OVCAR-8 ovarian): > 100 µM | TGI (SW-620 colon): > 100 µM | TGI (SK-MEL-5 melanoma): > 100000 nM | TGI (UACC-257 melanoma): > 100 µM | TGI (NCI-H460 lung): > 100 µM

Source: PubChem BioAssay (NCI)
